Reference: ChEMBL document CHEMBL5726133, “Dihydropyrrolopyridine inhibitors of ROR-gamma” (2017)

target: T1, Nuclear receptor ROR-gamma (Homo sapiens, UniProt P51449); assay: Binding Assay: Compounds of the present invention were tested for ability to bind to RORγ in a cell-free competition assay with commercially available radio-ligand (RL), 25-hydroxy [26,27-3H]-cholesterol (PerkinElmer, Cat. #NET674250UC), for a ligand binding site on a recombinant RORγ Ligand Binding Domain (LBD) protein expressed as a 6×His-Glutathione-S-Transferase (GST) fusion. […] The plate was shaken at 700 rpm for 20 min and incubated for 10 min at rt, after which 40 μL of poly-Lys YSi SPA beads (PerkinElmer, Cat. #RPNQ0010) were added to achieve 50 μg of the beads per well. The plate was incubated on an orbital shaker for 20 min and then for 10 min without agitation at rt. SPA signal for tritium beta radiation was registered on PerkinElmer Microbeta plate reader.
T1 sequence (P51449 whole entry): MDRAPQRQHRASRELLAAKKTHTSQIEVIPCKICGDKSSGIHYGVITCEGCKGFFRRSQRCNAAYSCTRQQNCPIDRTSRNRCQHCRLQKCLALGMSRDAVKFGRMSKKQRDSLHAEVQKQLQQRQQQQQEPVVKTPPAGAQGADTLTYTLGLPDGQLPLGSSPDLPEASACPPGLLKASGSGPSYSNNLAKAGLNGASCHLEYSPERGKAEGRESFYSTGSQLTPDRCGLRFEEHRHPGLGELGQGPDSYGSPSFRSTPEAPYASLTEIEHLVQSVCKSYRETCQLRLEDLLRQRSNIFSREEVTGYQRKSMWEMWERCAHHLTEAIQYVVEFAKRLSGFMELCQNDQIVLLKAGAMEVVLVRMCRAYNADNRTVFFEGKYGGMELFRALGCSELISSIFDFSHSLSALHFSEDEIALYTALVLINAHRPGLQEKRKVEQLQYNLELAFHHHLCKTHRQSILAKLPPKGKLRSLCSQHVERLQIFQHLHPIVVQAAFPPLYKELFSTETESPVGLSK

Ki, < 100 nM:
CCS(=O)(=O)c1ccc(C2(NC(=O)c3cnc4c(c3)CN(Cc3ccc(C(F)(F)F)cc3)[C@H]4C(C)C)CC2)nc1
CCS(=O)(=O)c1ccc(CC(=O)Nc2cnc3c(c2)CN(Cc2ccc(Cl)cc2)[C@H]3C(C)C)cc1
CCS(=O)(=O)c1ccc(CNC(=O)c2cnc3c(c2)C(=O)N(Cc2ccc(Cl)cc2)[C@H]3C(C)C)cc1
